Measurements from patent EP0597004B1, “THE USE OF DIOXAPYRROLOMYCIN AS AN ANTIPARASITIC AGENT AND COMPOSITIONS USEFUL THEREFOR” (PHARMACIA & UPJOHN COMPANY, priority 1991, dated 1993).
Several values for one entry are separate records, joined by “and”; a condition that tells them apart may be missing. Equal entries are not always repeated. Structures can show the parent of a compound that is named as a salt. Where two headings read alike, the source gives them in different places.

Legend:
[1] = system: levamisole/benzimidazole-resistant Haemonchus contortus; assay: Jird assay with levamisole/benzimidazole-resistant strain (cross-resistance); assay type: in vivo; details: jirds, necropsy day 13 PI
Excerpt: (§1) Having shown potent activity against H. contortus in sheep, dioxapyrrolomycin was examined for cross-resistance to the three major classes of broad-spectrum anthelmintics (ivermectin, levamisole, and benzimidazoles) using jirds infected with resistant strains of H. contortus. […] In vitro, the dioxapyrrolomycin dose required to affect a closantel-resistant strain of H. contortus is approximately seventeen times that required for the susceptible strain.
(§2) This in vivo assay utilizes jirds infected with two important target parasites of ruminants, H. contortus and T. colubriformis (anthelmintic-sensitive or -resistant worms can be used). Initially, activity is assessed only against H. contortus as described in G.A. Conder et. al., J. Parasitol. 76:168-170 (1990), while follow-up studies examine activity against both species of parasites using the techniques outlined in G.A. Conder et al., J. Parsitol. 77:168-170 (1991).

Haemonchus contortus [2] = assay: Haemonchus contortus / jird assay (clearance from experimentally infected jirds); assay type: in vivo; details: necropsy day 13 PI; for Percentage Clearance Susceptible: susceptible strain; for Percentage Clearance H. contortus: purity ∼100%
Method: as §2

Caenorhabditis elegans = Caenorhabditis elegans in vitro assay; details: free-living nematode
Excerpt: The free-living nematode C. elegans in vitro assay has been described extensively in the literature, for example, K.G. Simpkin and G.C. Coles, J. Chem. Tech. Biotechnol., 31:66-69 (1981).
Dioxapyrrolomycin is active in the C. elegans assay at 0.825 ppm.

[3] = system: ivermectin-resistant Haemonchus contortus; assay: Jird assay with ivermectin-resistant strain (cross-resistance); assay type: in vivo; details: jirds, necropsy day 13 PI
Excerpt: as §1, §2

[4] = system: Trichostrongylus colubriformis; assay: Trichostrongylus colubriformis / jird assay (clearance from experimentally infected jirds); assay type: in vivo; details: necropsy day 13 PI, purity ∼100%
Method: as §2

Haemonchus contortus [5] = assay: Haemonchus contortus / sheep assay (clearance from monospecifically infected lambs); assay type: in vivo; details: necropsy day 42 PI
Method: Purpose bred, helminth-free lambs are procured. Upon arrival, the lambs are treated with ivermectin (0.2 mg/kg, subcutaneously), vaccinated for sore mouth, and placed in a single, community pen. Three weeks later each lamb is treated with levamisole hydrochloride (8.0 mg/kg per os). Two weeks after treatment with levamisole, all lambs are inoculated per os with ∼ 7,500 infective larvae of H. contortus. Rectal fecal samples are taken from each lamb 1 to 3 days prior to infection and these are examined using the double centrifugation technique to verify that the animals are free of trichostrongyles prior to infection. […] Remaining lambs are treated per os on day 35 PI; 4-5 animals receive vehicle only. Prior to administration, test materials are prepared in a manner suitable for the substance being examined. All lambs are monitored for toxic signs following treatment. Lambs are killed 7 days after treatment (day 42 PI), and the abomasum is ligated and removed from each animal. Each abomasum is opened longitudinally and the contents rinsed into an 80 mesh sieve. Sieve contents are collected in individual containers and fixed in formol-alcohol. Later each sample is transferred to a 1,000 ml graduated cylinder and the volume brought to 400 - 1000 ml with tap water. The total number of worms in a 10% aliquot is determined. If no worms are found in the 10% aliquot, the entire sample is examined. Total worm number/lamb and percentage clearance for each treatment are calculated. Percentage clearance is determined according to the following formula: Percentage clearance = [(Mean number of worms recovered from vehicle control lambs - number of worms recovered from treated lamb)/mean number of worms recovered from vehicle control lambs] x 100.

[6] = mice, cited from earlier work
[7] = system: closantel-resistant strain of H. contortus; assay: In vitro cross-resistance with closantel-resistant strain; set-up: species or system Haemonchus contortus; details: closantel-resistant vs susceptible H. contortus
Excerpt: as §1

[8] = 0.11 mg/jird per os day 10 PI, purity 95%
[9] = 0.012 mg/jird per os on day 10 PI
[10] = 0.11 mg/jird per os on day 10 PI

## CCCSc1ccc2nc(NC(=O)OC)[nH]c2c1 [Albendazole, reference compound]
[1]; 0.075 mg/jird per os day 10 PI
  Percentage Clearance Levamisole/Benzimidazole Resistant: 36.2%
Haemonchus contortus [2]; 0.075 mg/jird per os day 10 PI
  Percentage Clearance Susceptible: ∼95.0%

## O=[N+]([O-])c1c([C@H]2OCOc3c(Cl)cc(Cl)cc32)[nH]c(Cl)c1Cl [Dioxapyrrolomycin, dioxapyrrolomycin]
Caenorhabditis elegans
  active in the C. elegans in vitro assay at: 0.825 ppm
[3]; [8]
  Percentage Clearance Ivermectin Resistant: 92.7%
[4]; [9]
  Percentage Clearance T. colubriformis: 48.8%
[4]; 0.037 mg/jird per os on day 10 PI
  Percentage Clearance T. colubriformis: 17.2%
[4]; [10]
  Percentage Clearance T. colubriformis: 0%
[4]; 0.33 mg/jird (= 8.25 mg/kg) per os on day 10 PI
  Percentage Clearance T. colubriformis: 41.5%
Haemonchus contortus [5]; 0.78 mg/kg per os on day 35 PI
  Percentage Clearance: 44.0%
Haemonchus contortus [5]; 1.56 mg/kg per os on day 35 PI
  Percentage Clearance: 92.2%
Haemonchus contortus [5]; 3.125 mg/kg per os on day 35 PI, 3.125 mg/kg
  Percentage Clearance: 99.7% and 99.9%
Haemonchus contortus [5]; 6.25 mg/kg per os on day 35 PI
  Percentage Clearance: 99.9%
Haemonchus contortus [5]; 12.5 mg/kg per os on day 35 PI
  Percentage Clearance: 100%
[6]; ip
  LD50: 125 to 250 mg/kg
[6]; po
  LD50: 13 mg/kg
[1]; [8]
  Percentage Clearance Levamisole/Benzimidazole Resistant: 98.6%
[7]
  dose required to affect a closantel-resistant strain relative to that required for the susceptible strain: approximately seventeen
Haemonchus contortus [2]; [9]
  Percentage Clearance H. contortus: 45.8%
Haemonchus contortus [2]; 0.037 mg/jird (= 0.925 mg/kg) per os on day 10 PI
  Percentage Clearance H. contortus: 96.4%
Haemonchus contortus [2]; [10]
  Percentage Clearance H. contortus: 100%
Haemonchus contortus [2]; [8]
  Percentage Clearance Susceptible: 95.8%

## Ivermectin
[3]; 0.005 mg/jird per os day 10 PI
  Percentage Clearance Ivermectin Resistant: 18.7%
[1]; 0.005 mg/jird per os day 10 PI
  Percentage Clearance Levamisole/Benzimidazole Resistant: 98.6%
Haemonchus contortus [2]; 0.005 mg/jird per os day 10 PI
  Percentage Clearance Susceptible: ∼95.0%

## c1ccc([C@H]2CN3CCSC3=N2)cc1 [Levamisole hydrochloride]
[3]; 0.4 mg/jird per os day 10 PI
  Percentage Clearance Ivermectin Resistant: 96.4%
[1]; 0.4 mg/jird per os day 10 PI
  Percentage Clearance Levamisole/Benzimidazole Resistant: 51.7%
Haemonchus contortus [2]; 0.4 mg/jird per os day 10 PI
  Percentage Clearance Susceptible: ∼95.0%
